Reference: patent US9586951B2 (FUJIFILM Corporation, priority 2013, dated 2017)

How the values were obtained:
[1] = tested on: human non-small cell lung cancer cell line NCI-H460; assay: Cell proliferation inhibition test by sensitivity-enhancing to ionizing radiation (Cell Titer Glo); type: cell-based; conditions: concentration in which SER became 2, NCI-H460 cells, ionizing radiation 2 Gy, cultured 120 hour
Outline: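 Radiosensitisation measured as SER, a ratio of Cell Titer Glo luminescence in irradiated vs unirradiated plates relative to DMSO; SER2, the concentration yielding SER 2, came from sigmoidal regression. Compound (0.1% DMSO) was given 24 h post-seeding, 2 Gy applied 30 min later, then 120 hour culture at 37° C.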

[2] = target: T1, ATM (Homo sapiens, UniProt Q13315); assay: ATM inhibition test (phosphorylation of Chk2 generated by ionizing radiation, AlphaScreen SureFire); type: cell-based; conditions: phosphorylated Chk2 in NCI-H460 cells, ionizing radiation 8Gy, 1 hour after test compound treatment; read-out: ATM inhibitory activity
T1 construct: detecting phosphorylation of Chk2 in a human non-small cell lung cancer cell line NCI-H460 (ATCC company); host or cells: NCI-H460 human non-small cell lung cancer cells
Outline: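 NCI-H460 cells, compound 1 h pre-treatment, 8Gy IR, further 1 h at 37° C in 5% CO2. Read-out: phospho-Chk2 via AlphaScreen SureFire. % inhibition relative to IR-induced signal window (irradiated vs non-irradiated drug-free wells).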

T1 sequence (Q13315 whole entry): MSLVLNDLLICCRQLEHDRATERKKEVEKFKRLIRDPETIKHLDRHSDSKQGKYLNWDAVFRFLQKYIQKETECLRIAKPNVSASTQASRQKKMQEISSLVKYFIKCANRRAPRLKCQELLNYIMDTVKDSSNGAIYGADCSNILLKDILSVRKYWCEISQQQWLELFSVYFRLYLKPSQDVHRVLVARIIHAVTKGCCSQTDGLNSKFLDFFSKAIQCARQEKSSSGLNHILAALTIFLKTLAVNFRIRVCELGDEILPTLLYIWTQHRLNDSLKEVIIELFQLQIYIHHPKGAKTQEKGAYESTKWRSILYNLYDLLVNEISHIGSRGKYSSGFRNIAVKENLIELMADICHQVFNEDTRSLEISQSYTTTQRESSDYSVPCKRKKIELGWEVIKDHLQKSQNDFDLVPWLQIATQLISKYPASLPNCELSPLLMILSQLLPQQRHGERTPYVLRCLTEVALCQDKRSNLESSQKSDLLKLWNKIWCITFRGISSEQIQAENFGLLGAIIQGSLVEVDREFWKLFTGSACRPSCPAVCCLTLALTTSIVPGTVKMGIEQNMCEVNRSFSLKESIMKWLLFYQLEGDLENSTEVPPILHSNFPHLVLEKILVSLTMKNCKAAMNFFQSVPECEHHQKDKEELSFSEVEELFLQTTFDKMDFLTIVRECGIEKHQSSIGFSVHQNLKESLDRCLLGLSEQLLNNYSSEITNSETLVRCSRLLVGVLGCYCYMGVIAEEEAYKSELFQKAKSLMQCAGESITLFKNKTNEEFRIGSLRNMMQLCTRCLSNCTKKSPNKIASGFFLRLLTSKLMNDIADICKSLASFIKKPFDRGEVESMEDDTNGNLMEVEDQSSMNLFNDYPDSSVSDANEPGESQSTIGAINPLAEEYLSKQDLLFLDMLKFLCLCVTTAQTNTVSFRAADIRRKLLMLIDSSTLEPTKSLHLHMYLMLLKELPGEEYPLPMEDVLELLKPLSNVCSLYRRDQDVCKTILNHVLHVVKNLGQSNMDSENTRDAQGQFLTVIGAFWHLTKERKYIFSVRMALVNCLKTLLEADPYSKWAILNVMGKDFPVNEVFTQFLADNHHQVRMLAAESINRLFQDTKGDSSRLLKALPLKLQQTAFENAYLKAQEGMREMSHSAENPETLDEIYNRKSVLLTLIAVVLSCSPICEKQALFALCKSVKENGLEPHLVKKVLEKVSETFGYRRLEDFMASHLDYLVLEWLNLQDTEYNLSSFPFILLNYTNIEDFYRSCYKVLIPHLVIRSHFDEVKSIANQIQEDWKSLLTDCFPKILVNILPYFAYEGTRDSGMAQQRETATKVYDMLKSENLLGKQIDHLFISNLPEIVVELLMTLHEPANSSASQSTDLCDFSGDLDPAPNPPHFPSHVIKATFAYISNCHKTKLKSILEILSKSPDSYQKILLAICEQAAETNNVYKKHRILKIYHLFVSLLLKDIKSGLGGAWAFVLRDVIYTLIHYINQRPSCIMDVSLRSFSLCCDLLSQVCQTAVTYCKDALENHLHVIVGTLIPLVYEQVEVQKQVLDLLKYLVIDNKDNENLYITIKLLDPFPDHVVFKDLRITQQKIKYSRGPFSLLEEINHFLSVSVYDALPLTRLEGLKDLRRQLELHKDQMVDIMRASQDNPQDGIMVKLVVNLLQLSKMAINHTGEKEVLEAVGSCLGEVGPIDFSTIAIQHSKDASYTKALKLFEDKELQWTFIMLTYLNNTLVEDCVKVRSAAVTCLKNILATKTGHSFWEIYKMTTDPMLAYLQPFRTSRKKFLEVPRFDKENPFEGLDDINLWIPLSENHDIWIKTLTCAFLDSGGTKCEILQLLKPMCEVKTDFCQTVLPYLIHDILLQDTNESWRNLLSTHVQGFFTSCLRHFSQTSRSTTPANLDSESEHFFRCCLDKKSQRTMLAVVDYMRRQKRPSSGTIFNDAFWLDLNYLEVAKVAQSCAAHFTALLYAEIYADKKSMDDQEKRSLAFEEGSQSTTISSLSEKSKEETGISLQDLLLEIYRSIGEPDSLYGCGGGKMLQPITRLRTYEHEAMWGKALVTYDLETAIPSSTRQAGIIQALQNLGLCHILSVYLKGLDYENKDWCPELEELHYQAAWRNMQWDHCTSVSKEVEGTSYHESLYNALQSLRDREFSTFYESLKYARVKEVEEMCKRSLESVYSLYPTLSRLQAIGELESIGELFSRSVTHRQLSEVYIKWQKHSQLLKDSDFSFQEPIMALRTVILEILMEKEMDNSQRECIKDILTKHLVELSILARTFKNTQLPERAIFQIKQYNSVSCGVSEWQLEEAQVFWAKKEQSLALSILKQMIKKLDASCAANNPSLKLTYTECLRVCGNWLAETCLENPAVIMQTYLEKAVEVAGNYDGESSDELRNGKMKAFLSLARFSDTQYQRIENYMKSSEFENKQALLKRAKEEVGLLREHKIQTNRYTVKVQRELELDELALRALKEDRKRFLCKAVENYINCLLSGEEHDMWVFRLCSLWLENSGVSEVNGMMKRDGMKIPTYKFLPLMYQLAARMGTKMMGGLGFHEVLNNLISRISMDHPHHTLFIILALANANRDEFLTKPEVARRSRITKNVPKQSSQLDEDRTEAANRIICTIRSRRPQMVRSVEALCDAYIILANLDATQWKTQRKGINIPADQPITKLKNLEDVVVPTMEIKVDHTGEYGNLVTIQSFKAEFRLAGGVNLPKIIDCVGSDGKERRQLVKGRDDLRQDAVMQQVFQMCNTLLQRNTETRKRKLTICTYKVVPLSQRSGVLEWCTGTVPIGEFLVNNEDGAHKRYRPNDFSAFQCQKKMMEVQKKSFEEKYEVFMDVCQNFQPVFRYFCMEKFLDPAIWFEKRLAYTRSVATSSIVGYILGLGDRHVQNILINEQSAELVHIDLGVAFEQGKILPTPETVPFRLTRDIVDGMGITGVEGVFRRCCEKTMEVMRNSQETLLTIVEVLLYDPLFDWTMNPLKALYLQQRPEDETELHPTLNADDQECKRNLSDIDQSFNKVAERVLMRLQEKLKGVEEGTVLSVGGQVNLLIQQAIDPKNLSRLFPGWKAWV

Cc1cccc(C(C)Nc2ccc3c(c2)Sc2cccc(-c4cc(N5CCOCC5)cc(=O)[nH]4)c2S3)n1 (single isomer, unassigned) [Example 1-12-136-2, 6-(7-((1-(6-methylpyridin-2-yl)ethyl)amino)thianthren-1-yl)-4-morpholinopyridin-2(1H)-one]
SER2 (concentration at which the radiation sensitivity-enhancement ratio reaches 2) [1]: 100 to 500 nM
IC50 [2]: < 100 nM

CCC(Nc1ccc2c(c1)Cc1cccc(-c3cc(N4CCOCC4)cc(=O)[nH]3)c1O2)c1cncc(OC)c1 (stereo not shown) [Example 2-14-16, 6-(7-((1-(5-Methoxypyridin-3-yl)propyl)amino)-9H-xanthen-4-yl)-4-morpholino pyridin-2 (1H)-one]
SER2 (concentration at which the radiation sensitivity-enhancement ratio reaches 2) ([1]; Homo sapiens, NCI-H460, 120 h): < 100 nM
IC50 [2]: < 100 nM

COc1cncc(C(C)Nc2ccc3c(c2)Sc2cccc(-c4cc(N5CCOCC5)cc(=O)[nH]4)c2S3)c1 (stereo not shown) [Example 1-12-9, 6-(7-((1-(5-Methoxypyridin-3-yl)ethyl)amino)thianthren-1-yl)-4-morpholino pyridin-2(1H)-one]
SER2 (concentration at which the radiation sensitivity-enhancement ratio reaches 2) ([1]; Homo sapiens, NCI-H460, 120 h): 100 to 500 nM
IC50 [2]: < 100 nM

COCC(Nc1ccc2c(c1)Sc1cccc(-c3cc(N4CCOCC4)cc(=O)[nH]3)c1S2)c1ncc(C)cn1 (stereo not shown) [Example 1-12-96, 6-(7-((2-Methoxy-1-(5-methylpyrimidin-2-yl)ethyl)amino)thianthren-1-yl)-4-morpholino pyridin-2(1H)-one]
SER2 (concentration at which the radiation sensitivity-enhancement ratio reaches 2) ([1]; Homo sapiens, NCI-H460, 120 h): 100 to 500 nM
IC50 [2]: < 100 nM

Cc1cccc(C(CO)Nc2ccc3c(c2)Cc2cccc(-c4cc(N5CCOCC5)cc(=O)[nH]4)c2O3)n1 (single isomer, unassigned) [Example 2-14-92-2, 6-(7-((2-hydroxy-1-(6-methylpyridin-2-yl)ethyl)amino)-9H-xanthen-4-yl)-4-morpholinopyridin-2(1H)-one]
SER2 (concentration at which the radiation sensitivity-enhancement ratio reaches 2) ([1]; Homo sapiens, NCI-H460, 120 h): < 100 nM
IC50 [2]: 100 to 500 nM

O=c1cc(N2CCOCC2)cc(-c2c(F)ccc3c2Oc2ccc(NCc4cccc(Cl)n4)cc2C3)[nH]1 [Example 2-46-1, 6-(7-(((6-Chloropyridin-2-yl)methyl)amino)-3-fluoro-9H-xanthen-4-yl)-4-morpholinopyridin-2(1H)-one]
SER2 (concentration at which the radiation sensitivity-enhancement ratio reaches 2) ([1]; Homo sapiens, NCI-H460, 120 h): < 100 nM
IC50 [2]: < 100 nM

6-(7-(((5-Methyl pyridin-2- yl)(1-methyl pyrrolidin-3-yl) methyl)amino)thianthren-1- yl)-4-morpholino pyridin-2 (1H)-one [Example 1-22-9]
SER2 (concentration at which the radiation sensitivity-enhancement ratio reaches 2) [1]: < 100 nM
IC50 [2]: < 100 nM

Cc1ccc(C2(Nc3ccc4c(c3)Sc3cccc(-c5cc(N6CCOCC6)cc(=O)[nH]5)c3S4)COC2)nc1 [Example 1-50-4, 6-(7-((3-(5-Methylpyridin-2-yl)oxetan-3-yl)amino)thianthren-1-yl)-4-morpholino pyridin-2(1H)-one]
SER2 (concentration at which the radiation sensitivity-enhancement ratio reaches 2) ([1]; Homo sapiens, NCI-H460, 120 h): 100 to 500 nM
IC50 [2]: < 100 nM

CC(Nc1ccc2c(c1)Cc1cccc(-c3cc(N4CCOCC4)cc(=O)[nH]3)c1O2)c1cccc(F)n1 (single isomer, unassigned) [Example 2-14-87-1, 6-(7-((1-(6-fluoropyridin-2-yl)ethyl)amino)-9H-xanthen-4-yl)-4-morpholinopyridin-2(1H)-one]
SER2 (concentration at which the radiation sensitivity-enhancement ratio reaches 2) ([1]; Homo sapiens, NCI-H460, 120 h): 100 to 500 nM
IC50 [2]: < 100 nM

CC(CN1CCOCC1)Nc1ccc2c(c1)Sc1cccc(-c3cc(N4CCOCC4)cc(=O)[nH]3)c1S2 (single isomer, unassigned) [Example 1-13-2-2, 4-morpholino-6-(7-((1-morpholinopropan-2-yl)amino)thianthren-1-yl)pyridin-2(1H)-one]
SER2 (concentration at which the radiation sensitivity-enhancement ratio reaches 2) ([1]; Homo sapiens, NCI-H460, 120 h): < 100 nM
IC50 [2]: < 100 nM

CC(CN1CCN(C)CC1)Nc1ccc2c(c1)Sc1cccc(-c3cc(N4CCOCC4)cc(=O)[nH]3)c1S2 (single isomer, unassigned) [Example 1-13-3-2, 6-(7-((1-(4-methylpiperazin-1-yl)propan-2-yl)amino)thianthren-1-yl)-4-morpholinopyridin-2(1H)-one]
SER2 (concentration at which the radiation sensitivity-enhancement ratio reaches 2) ([1]; Homo sapiens, NCI-H460, 120 h): 100 to 500 nM
IC50 [2]: < 100 nM

Cc1cnc(C(C)Nc2ccc3c(c2)Cc2cccc(-c4cc(N5CCOCC5)cc(=O)[nH]4)c2O3)cn1 (stereo not shown) [Example 2-14-24, 6-(7-((1-(5-Methylpyrazin-2-yl)ethyl)amino)-9H-xanthen-4-yl)-4-morpholino pyridin-2(1H)-one]
SER2 (concentration at which the radiation sensitivity-enhancement ratio reaches 2) ([1]; Homo sapiens, NCI-H460, 120 h): 100 to 500 nM
IC50 [2]: < 100 nM

O=c1cc(N2CCOCC2)cc(-c2cccc3c2Oc2ccc(NCc4cncc(Cl)n4)cc2C3)[nH]1 [Example 2-13-1, 6-(7-(((6-chloropyrazin-2-yl)methyl)amino)-9H-xanthen-4-yl)-4-morpholinopyridin-2(1H)-one]
SER2 (concentration at which the radiation sensitivity-enhancement ratio reaches 2) ([1]; Homo sapiens, NCI-H460, 120 h): 500 to 2000 nM
IC50 [2]: 100 to 500 nM

Cc1ccc(C(CCCN(C)C)Nc2ccc3c(c2)Sc2cccc(-c4cc(N5CCOCC5)cc(=O)[nH]4)c2S3)nc1 (stereo not shown) [Example 1-50-7, 6-(7-((4-(Dimethylamino)-1-(5-methylpyridin-2-yl)butyl)amino)thianthren-1-yl)-4-morpholino pyridin-2(1H)-one]
SER2 (concentration at which the radiation sensitivity-enhancement ratio reaches 2) ([1]; Homo sapiens, NCI-H460, 120 h): 100 to 500 nM
IC50 [2]: < 100 nM

CC(Nc1ccc2c(c1)Cc1cccc(-c3cc(N4CCOCC4)cc(=O)[nH]3)c1O2)c1cc(Cl)ccn1 (stereo not shown) [Example 2-14-23, 6-(7-((1-(4-Chloropyridin-2-yl)ethyl)amino)-9H-xanthen-4-yl)-4-morpholino pyridin-2(1H)-one]
SER2 (concentration at which the radiation sensitivity-enhancement ratio reaches 2) ([1]; Homo sapiens, NCI-H460, 120 h): 100 to 500 nM
IC50 [2]: < 100 nM

COc1ccnc(CNc2ccc3c(c2)Cc2ccnc(-c4cc(N5CCOCC5)cc(=O)[nH]4)c2O3)c1 [Example 2-41-4, 6-(7-(((4-Methoxypyridin-2-yl)methyl)amino)-5H-chromeno[2,3-c]pyridin-1-yl)-4-morpholino pyridin-2 (1H)-one]
SER2 (concentration at which the radiation sensitivity-enhancement ratio reaches 2) ([1]; Homo sapiens, NCI-H460, 120 h): 100 to 500 nM
IC50 [2]: < 100 nM

COC[C@H](CN1CCOC[C@H]1C)Nc1ccc2c(c1)Sc1cccc(-c3cc(N4CCOCC4)cc(=O)[nH]3)c1S2 [Example 1-46-4, 6-(7-(((S)-1-Methoxy-3-((R)-3-methylmorpholino)propan-2-yl)amino)thianthren-1-yl)-4-morpholino pyridin-2(1H)-one]
SER2 (concentration at which the radiation sensitivity-enhancement ratio reaches 2) ([1]; Homo sapiens, NCI-H460, 120 h): 100 to 500 nM
IC50 [2]: < 100 nM

Cc1cncc(C(C)Nc2ccc3c(c2)Sc2cccc(-c4cc(N5CCOCC5)cc(=O)[nH]4)c2O3)c1 (stereo not shown) [Example 4-4-29, 6-(8-((1-(5-Methylpyridin-3-yl)ethyl)amino)phenoxathiin-4-yl)-4-morpholino pyridin-2(1H)-one]
SER2 (concentration at which the radiation sensitivity-enhancement ratio reaches 2) ([1]; Homo sapiens, NCI-H460, 120 h): 100 to 500 nM
IC50 [2]: < 100 nM

O=c1cc(N2CCOCC2)cc(-c2cccc3c2Oc2ccc(NCc4cncc(C5CC5)c4)cc2C3)[nH]1 [Example 2-2-50, 6-(7-(((5-Cyclopropylpyridin-3-yl)methyl)amino)-9H-xanthen-4-yl)-4-morpholino pyridin-2 (1H)-one]
SER2 (concentration at which the radiation sensitivity-enhancement ratio reaches 2) ([1]; Homo sapiens, NCI-H460, 120 h): 100 to 500 nM
IC50 [2]: < 100 nM

O=c1cc(N2CCOCC2)cc(-c2cccc3c2Sc2ccc(N[C@@H]4CCCC[C@@H]4N4CCOCC4)cc2S3)[nH]1 [Example 1-48-2, 4-Morpholino-6-(7-(((1R,2S)-2-morpholinocyclohexyl)amino)thianthren-1-yl)pyridin-2(1H)-one]
SER2 (concentration at which the radiation sensitivity-enhancement ratio reaches 2) ([1]; Homo sapiens, NCI-H460, 120 h): < 100 nM
IC50 [2]: < 100 nM

O=c1cc(N2CCOCC2)cc(-c2cccc3c2Sc2ccc(NCCN4C5CCC4COC5)cc2S3)[nH]1 [Example 1-10-5, 6-(7-((2-(3-oxa-8-azabicyclo[3.2.1]octan-8-yl)ethyl)amino)thianthren-1-yl)-4-morpholinopyridin-2(1H)-one]
SER2 (concentration at which the radiation sensitivity-enhancement ratio reaches 2) ([1]; Homo sapiens, NCI-H460, 120 h): 100 to 500 nM
IC50 [2]: < 100 nM

Cc1cccc(CNc2ccc3c(c2)Cc2ccnc(-c4cc(N5CCOCC5)cc(=O)[nH]4)c2O3)n1 [Example 2-41-2, 6-(7-(((6-Methylpyridin-2-yl)methyl)amino)-5H-chromeno[2,3-c]pyridin-1-yl)-4-morpholino pyridin-2 (1H)-one]
SER2 (concentration at which the radiation sensitivity-enhancement ratio reaches 2) ([1]; Homo sapiens, NCI-H460, 120 h): 100 to 500 nM
IC50 [2]: < 100 nM

COc1ccc(CNc2ccc3c(c2)Cc2cccc(-c4cc(N5CCOCC5)cc(=O)[nH]4)c2S3)cn1 [Example 3-8-10, 6-(7-(((6-Methoxypyridin-3-yl)methyl)amino)-9H-thioxanthen-4-yl)-4-morpholino pyridin-2(1H)-one]
SER2 (concentration at which the radiation sensitivity-enhancement ratio reaches 2) ([1]; Homo sapiens, NCI-H460, 120 h): 100 to 500 nM
IC50 [2]: < 100 nM

O=c1cc(N2CCOCC2)cc(-c2cccc3c2Oc2ccc(NCc4ccc(F)nc4)cc2C3)[nH]1 [Example 2-2-11, 6-(7-(((6-Fluoropyridin-3-yl)methyl)amino)-9H-xanthen-4-yl)-4-morpholino pyridin-2 (1H)-one]
SER2 (concentration at which the radiation sensitivity-enhancement ratio reaches 2) ([1]; Homo sapiens, NCI-H460, 120 h): 100 to 500 nM
IC50 [2]: < 100 nM

O=c1cc(N2CCOCC2)cc(-c2cccc3c2Oc2ccc(NCc4ccnc(F)c4)cc2C3)[nH]1 [Example 2-21-2, 6-(7-(((2-Fluoropyridin-4-yl)methyl)amino)-9H-xanthen-4-yl)-4-morpholinopyridin-2 (1H)-one]
SER2 (concentration at which the radiation sensitivity-enhancement ratio reaches 2) ([1]; Homo sapiens, NCI-H460, 120 h): 100 to 500 nM
IC50 [2]: < 100 nM

CCN(C)c1cncc(CNc2ccc3c(c2)Cc2cccc(-c4cc(N5CCOCC5)cc(=O)[nH]4)c2O3)c1 [Example 2-21-9, 6-(7-(((5-(Ethyl(methyl)amino)pyridin-3-yl)methyl)amino)-9H-xanthen-4-yl)-4-morpholino pyridin-2(1H)-one]
SER2 (concentration at which the radiation sensitivity-enhancement ratio reaches 2) ([1]; Homo sapiens, NCI-H460, 120 h): 500 to 2000 nM
IC50 [2]: < 100 nM
